Laboratory results reported in ChEMBL document CHEMBL1134316, “Identification of dipeptidyl nitriles as potent and selective inhibitors of cathepsin B through structure-based drug design” (J Med Chem, 2001).

Target: Procathepsin L (Homo sapiens, UniProt P07711)
Assay: Inhibitory activity against recombinant human cathepsin L (cat L) expressed in baculovirus

Sequence of Procathepsin L (P07711 whole entry): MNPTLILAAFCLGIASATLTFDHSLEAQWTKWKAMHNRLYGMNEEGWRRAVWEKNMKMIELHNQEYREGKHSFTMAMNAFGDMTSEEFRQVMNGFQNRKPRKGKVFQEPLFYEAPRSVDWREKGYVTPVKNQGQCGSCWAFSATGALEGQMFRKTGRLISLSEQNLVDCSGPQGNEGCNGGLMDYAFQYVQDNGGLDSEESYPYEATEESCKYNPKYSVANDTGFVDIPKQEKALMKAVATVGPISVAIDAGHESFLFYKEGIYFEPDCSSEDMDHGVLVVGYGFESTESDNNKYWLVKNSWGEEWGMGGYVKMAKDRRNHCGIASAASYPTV

SMILES | IC50
N#CCNC(=O)[C@H](Cc1ccccc1)NC(=O)Cc1ccccc1 | 170 nM
N#CCNC(=O)[C@H](Cc1ccccc1)NC(=O)C(c1ccccc1)c1ccccc1 | 31 nM

Target: Cathepsin B (Homo sapiens, UniProt P07858)
Assay: Inhibitory activity against recombinant human cathepsin B (cat B) expressed in baculovirus.

SMILES | IC50
N#CCNC(=O)[C@H](Cc1cccc(C(=N)N)c1)NC(=O)C(c1ccccc1)c1ccccc1 | > 1000 nM
Cc1cncc(C[C@H](NC(=O)C(c2ccccc2)c2ccccc2)C(=O)NCC#N)c1 | 652 nM
Cc1cccc(C[C@H](NC(=O)c2ccccc2)C(=O)NCC#N)c1 | 1900 nM
Cc1cccc(C[C@H](NC(=O)C(c2ccccc2)c2ccccc2)C(=O)N[C@H](C#N)COCc2ccc(C(=O)O)cc2)c1 | 30.7 nM
Cc1cccc(C[C@H](NC(=O)c2ccc(Cl)cc2)C(=O)NCC#N)c1 | 308 nM
CCc1cccc(C[C@H](NC(=O)C(c2ccccc2)c2ccccc2)C(=O)NCC#N)c1 | 136 nM
N#CCNC(=O)[C@H](Cc1ccc(I)cc1)NC(=O)C(c1ccccc1)c1ccccc1 | > 1000 nM
COC(=O)c1cccc(COC[C@@H](C#N)NC(=O)[C@H](Cc2cccc(C)c2)NC(=O)C(c2ccccc2)c2ccccc2)c1 | 47 nM
N#CCNC(=O)[C@H](Cc1ccccc1)NC(=O)OCc1ccccc1 | 62000 nM
N#CCNC(=O)[C@H](Cc1ccccc1)NC(=O)Cc1ccccc1 | 34000 nM
Cc1cccc(C[C@H](NC(=O)C(c2ccccc2)c2ccccc2)C(=O)N[C@H](C#N)CCOc2cccc(C(=O)O)c2)c1 | 138 nM
Cc1cccc(C[C@H](NC(=O)C(c2ccccc2)c2ccccc2)C(=O)N[C@H](C#N)COCc2cccc(CO)c2)c1 | 29 nM
N#CCNC(=O)[C@H](Cc1cccc(I)c1)NC(=O)C(c1ccccc1)c1ccccc1 | 121 nM
Cc1cc(CN)cc(C[C@H](NC(=O)C(c2ccccc2)c2ccccc2)C(=O)NCC#N)c1 | 358 nM
Cc1cccc(C[C@H](NC(=O)c2ccc(Cl)cc2F)C(=O)N[C@H](C#N)COCc2cccc(C(=O)O)c2)c1 | 2 nM
Cc1cccc(C[C@H](NC(=O)c2ccccc2)C(=O)N[C@H](C#N)COCc2cccc(C(=O)O)c2)c1 | 9.4 nM
N#CCNC(=O)[C@H](Cc1ccccc1)NC(=O)C(c1ccccc1)c1ccccc1 | 496 nM
Cc1cccc(C[C@H](NC(=O)c2ccc(F)cc2F)C(=O)NCC#N)c1 | 591 nM
Cc1cccc(C[C@H](NC(=O)C(c2ccccc2)c2ccccc2)C(=O)N[C@H](C#N)CC#Cc2cccc(C(=O)O)c2)c1 | 5.6 nM
Cc1cccc(C[C@H](NC(=O)C(c2ccccc2)c2ccccc2)C(=O)N[C@H](C#N)COCc2ccccc2)c1 | 10.2 nM
CCCCC(=O)N[C@@H](Cc1cccc(C)c1)C(=O)NCC#N | 3000 nM
CCCCC(=O)N[C@@H](Cc1cccc(C)c1)C(=O)N[C@H](C#N)COCc1cccc(C(=O)O)c1 | 35.7 nM
Cc1cc(C)cc(C[C@H](NC(=O)C(c2ccccc2)c2ccccc2)C(=O)NCC#N)c1 | 11.9 nM
Cc1cccc(C[C@H](NC(=O)c2ccc(Cl)cc2F)C(=O)NCC#N)c1 | 72 nM
Cc1cccc(C[C@H](NC(=O)c2ccc(Cl)c(Cl)c2)C(=O)NCC#N)c1 | 31.3 nM
Cc1cccc(C[C@H](NC(=O)c2ccc(Cl)cc2F)C(=O)N[C@H](C#N)COCc2ccccc2)c1 | 16.9 nM
Cc1cccc(C[C@H](NC(=O)c2ccc(F)cc2F)C(=O)N[C@H](C#N)COCc2ccccc2)c1 | 42 nM
N#CCNC(=O)[C@H](Cc1cccc(Cl)c1)NC(=O)C(c1ccccc1)c1ccccc1 | 130 nM
Cc1cccc(C[C@H](NC(=O)c2ccc(F)cc2F)C(=O)N[C@H](C#N)CCCc2cccc(C(=O)O)c2)c1 | 110 nM
Cc1cccc(C[C@H](NC(=O)C(c2ccccc2)c2ccccc2)C(=O)N[C@H](C#N)CCCc2cccc(C(=O)O)c2)c1 | 18 nM

Target: Cathepsin S (Homo sapiens, UniProt P25774)
Assay: Inhibitory activity against recombinant human cathepsin S (cat S) expressed in baculovirus

Sequence of Cathepsin S (P25774 whole entry): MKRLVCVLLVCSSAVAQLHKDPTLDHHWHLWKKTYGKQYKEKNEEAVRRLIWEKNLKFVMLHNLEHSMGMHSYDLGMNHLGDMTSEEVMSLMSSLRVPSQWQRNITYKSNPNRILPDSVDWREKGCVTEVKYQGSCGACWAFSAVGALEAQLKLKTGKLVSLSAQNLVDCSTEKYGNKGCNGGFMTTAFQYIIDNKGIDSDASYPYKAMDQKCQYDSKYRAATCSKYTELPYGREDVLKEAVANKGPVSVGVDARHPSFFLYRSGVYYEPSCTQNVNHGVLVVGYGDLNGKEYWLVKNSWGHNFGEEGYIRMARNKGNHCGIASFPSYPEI

SMILES | IC50
N#CCNC(=O)[C@H](Cc1ccccc1)NC(=O)Cc1ccccc1 | 226 nM
N#CCNC(=O)[C@H](Cc1ccccc1)NC(=O)C(c1ccccc1)c1ccccc1 | 48 nM
